How the values were obtained:
[1] = system: Salmonella Typhimurium in PAM; assay: Invasion assay in PAM; type: cell-based, porcine; settings: for invasion of Salmonella Typhimurium in PAM: 1 μM
Procedure: (§1) For the invasion assays, PAM and IPEC-J2 cells were seeded in 24-well plates at a density of approximately 5×10^5 cells and 10^5 cells per well, respectively. PAM were allowed to attach for at least 2 hours and IPEC-J2 cells were allowed to grow for at least 24 hours. […] After 24 hours the invasion assay was performed as described by Boyen et al., 2009a. Finally the PAM and IPEC-J2 cells were washed 3 times and lysed for 10 min with 1% (v/v) Triton X-100 or 0.2% (w/v) sodium deocxycholate (Sigma-Aldrich), respectively and 10-fold dilutions were plated on BGA plates.

[2] = system: Salmonella Typhimurium in PAM; assay: Intracellular survival assay in PAM; type: cell-based, porcine; settings: for intracellular proliferation of Salmonella Typhimurium in PAM: 1 μM
From the text: Porcine pulmonary alveolar macrophages (PAM) were isolated by broncho-alveolar washes from lungs of euthanized 3 to 4 week old piglets, obtained from a Salmonella-negative farm, as described previously (Dom et al., 1992). The isolated cells were pooled and frozen in liquid nitrogen until further use. Prior to seeding the cells, frozen aliquots of approximately 10^8 cells per ml were thawed and washed 3 times in Hank's buffered salt solution with Ca^2+ and Mg^2+ (HBSS+, Gibco) with 10% (v/v) fetal calf serum (FKS, Hyclone, Cramlington, England) at 4° C. Finally, these cells were cultured in Roswell Park Memorial Institute medium (RPMI, Gibco) containing 10% (v/v) FKS, 1% (v/v) L-glutamine (Gibco), 1% (v/v) sodium pyruvate (Gibco), 1% (v/v) MEM non essential amino acids (NEAA, Gibco) and 1% (v/v) penicillin-streptomycin (Gibco).
(§2) The number of viable bacteria was assessed 24 hours after infection.
Following the IVET screening, the intracellular survival assay was repeated with Salmonella Typhimurium ΔscsA and ΔcbpA and compared to the WT.

[3] = system: Salmonella Typhimurium in IPEC-J2 cells; assay: Invasion assay in IPEC-J2 cells; type: cell-based, porcine; settings: for invasion of Salmonella Typhimurium in IPEC-J2 cells: 1 μM
Procedure: as §1

[4] = system: Salmonella Typhimurium in IPEC-J2 cells; assay: Intracellular survival assay in IPEC-J2 cells; type: cell-based, porcine
Procedure: The polarized intestinal porcine epithelial (IPEC-J2) cell line is derived from jejunal epithelia isolated from a neonatal piglet (Rhoads et al., 1994; Schierack et al., 2006).
as §2

[5] = system: Salmonella Typhimurium WT; assay: Effect of cortisol on the growth of Salmonella Typhimurium; settings: 0.001 to 100 μM, LB broth, 24 hours
Procedure: Therefore, Salmonella Typhimurium was grown in LB broth whether or not supplemented with cortisol. The number of CFU per ml was determined at different time points by titration of 10-fold dilutions of the bacterial suspensions on BGA. After incubation for 24 hours at 37° C., the number of colonies was counted.

[6] = system: Salmonella Typhimurium WT; assay: Effect of cortisol on the gene expression of Salmonella Typhimurium (microarray); settings: 1 μM, stationary and logarithmic phase culture
Procedure: Two OD600 nm units of each culture were incubated in one-fifth culture volume 5% (v/v) phenol pH 4.3/95% (v/v) ethanol solution for 30 min on ice to stabilize the RNA. Subsequently, the RNA was extracted using the SV Total RNA purification kit (Promega, Leiden, the Netherlands).
Each condition was tested in triplicate and transcriptomic techniques involved Salmonella Typhimurium microarrays constructed at the Institute of Food Research, Norwich, UK, as described previously (Clements et al., 2002; Yberg et al., 2006). The microarray used in this study was the whole-genome SALSA cDNA microarray covering 5080 genes and data analysis was performed as described by Eriksson-Ygberg et al., 2006.

PAM = assay: Cytotoxicity assay (LDH); type: cell-based, porcine; settings: 0.001 to 100 μM
Procedure: Therefore PAM were seeded in a 96-well microplate at a density of approximately 2×10^5 cells per well and were allowed to attach for at least 2 hours. The IPEC-J2 cells were seeded and allowed to grow for at least 24 hours in a 96-well microplate at a density of approximately 2×10^4 cells per well in Dulbecco's modified Eagle's is medium (DMEM, Gibco) supplemented with 46.5% (v/v) Ham's F12 medium (Gibco), 5% (v/v) FKS and 1% insulin-transferrin-selenium-A supplement (ITS, Gibco).
The LDH test was used in accordance to the manufacturer's instructions and the absorbance was measured at 492 nm using a microplate ELISA reader (Multiscan M S, Thermo Labsystems, Helsinki, Finland).

[7] = system: Salmonella Typhimurium infected PAM; assay: iTRAQ comparative proteome study of cortisol treated Salmonella infected PAM; type: cell-based, porcine; settings: 1 μM cortisol
From the text: We used a gel-free approach called isobaric tags for relative and absolute quantification (iTRAQ) in which four different isobaric labels are used to tag N-termini and lysine side chains of four different samples with four different isobaric reagents. Upon collision-induced dissociation during MS/MS, the isobaric tags are released, which results in four unique reporter ions that are used to quantify the proteins in the four different samples (Ross et al., 2004).
Sample preparation: PAM were isolated and cultured as described in Verbrugghe et al. (2011), they were seeded in 175 cm^2 cell culture flasks at a density of approximately 5×10^7 cells per flask and were allowed to attach for 2 hours. Subsequently, PAM were washed 3 times with Hank's buffered salt solution with Ca^2+ and Mg^2+ (HBSS+, Gibco) and a gentamicin protection invasion assay was performed as described by Boyen et al. (2009a). Briefly, Salmonella was inoculated into the cell culture flasks at a multiplicity of infection (MOI) of 10:1. To synchronize the infection, the inoculated flasks were centrifuged at 365×g for 10 min and incubated for 30 min at 37° C. under 5% CO2. […] The supernatant was held on ice until further use and the pellet was dissolved and sonicated (6 times 30 sec), using an ultrasonic processor XL 2015 (Misonix, Farmingdale, N.Y., USA), in reagent 3 of the Ready Prep Sequential extraction kit (Bio-Rad, Hercules, Calif., USA). […] Protein concentration was determined using the Bradford Protein Assay (Thermo Fisher Scientific, Rockford, USA) according to the manufacterer's instructions.
Trypsin digest and iTRAQ labeling: Digest and labeling of the samples (100 μg proteins per sample) with iTRAQ reagents was performed according to the manufacturer's guidelines (AB Sciex, Foster City, Calif., USA). Individual samples of cortisol treated or untreated PAM were analyzed in the same run, making paired comparisons possible and minimizing technical variation. […] Each fraction was analyzed by nano LC-MSMS as described by Bijttebier et al. (2009). […]

[8] = system: Salmonella Typhimurium in PAM; settings: 1 μM, 24 hours; cited from earlier work
[9] = system: Salmonella Typhimurium in PAM; assay: Contribution of the cytoskeleton to cortisol induced intracellular proliferation in PAM; type: cell-based, porcine; settings: 2 μM cytochalasin D and/or 20 μM nocodazole, 1 μM cortisol, 24 hours
Procedure: Therefore, PAM is were seeded in 24-well plates at a density of approximately 5×10^5 cells per well, allowed to attach for 2 hours and infected with Salmonella, as described in the iTRAQ analysis.

pig = settings: 2 mg dexamethasone per kg body weight; cited from earlier work

## CNC[C@H](O)c1ccc(O)c(O)c1 [Epinephrine, epinephrine]
[1]
  invasion of Salmonella Typhimurium in PAM: did neither affect
[2]
  intracellular proliferation of Salmonella Typhimurium in PAM: did neither affect
[3]
  invasion of Salmonella Typhimurium in IPEC-J2 cells: did neither affect
[4]; 1 μM
  intracellular proliferation of Salmonella Typhimurium in IPEC-J2 cells: did neither affect

## C[C@]12CCC(=O)C=C1CC[C@@H]1[C@@H]2[C@@H](O)C[C@@]2(C)[C@H]1CC[C@]2(O)C(=O)CO [cortisol, Cortisol]
[1]; 0.001 to 100 μM
  invasion in PAM: did neither affect
[2]; 24 hours
  intracellular proliferation of Salmonella Typhimurium in treated PAM in comparison to non-treated cells: higher
[2]; PAM, 24 hours
  concentration leading to a significant dose-dependent increase of the number of intracellular bacteria: 100 nM
[5]
  growth of Salmonella: did not affect
[6]
  gene expression levels by microarray analysis: did not significantly affect
PAM
  effect on cell viability: did not exert a notable effect
[7]
  number of proteins more abundant in cortisol treated PAM: 21
  number of proteins with higher levels in untreated PAM: Two
  number of proteins with recurrent expressional differences, treated vs untreated infected PAM: 23
[3]; 0.001 to 100 μM
  invasion in IPEC-J2 cells: did neither affect
[8]
  number of intracellular Salmonella Typhimurium bacteria compared to untreated PAM: significant increase
[4]; 0.001 to 100 μM
  intracellular proliferation of Salmonella Typhimurium in IPEC-J2 cells: did neither affect

## C=C1[C@@H](C)[C@H]2[C@H](Cc3ccccc3)NC(=O)[C@]23[C@H](OC(C)=O)/C=C/[C@@](C)(O)C(=O)[C@@H](C)C/C=C/[C@H]3[C@@H]1O [cytochalasin D]
[9]
  cortisol induced increased survival of the bacterium in PAM: inhibition

## C[C@@H]1C[C@H]2[C@@H]3CCC4=CC(=O)C=C[C@]4(C)[C@@]3(F)[C@@H](O)C[C@]2(C)[C@@]1(O)C(=O)CO [dexamethasone]
PAM
  effect on cell viability: did not exert a notable effect
pig
  immunosuppression of the pig: does not cause immunosuppression

## NCCc1ccc(O)c(O)c1 [dopamine]
[1]
  invasion of Salmonella Typhimurium in PAM: did neither affect
[2]
  intracellular proliferation of Salmonella Typhimurium in PAM: did neither affect
[3]
  invasion of Salmonella Typhimurium in IPEC-J2 cells: did neither affect
[4]; 1 μM
  intracellular proliferation of Salmonella Typhimurium in IPEC-J2 cells: did neither affect

## COC(=O)Nc1nc2ccc(C(=O)c3cccs3)cc2[nH]1 [nocodazole]
[9]
  cortisol induced increased survival of the bacterium in PAM: inhibition

## NC[C@H](O)c1ccc(O)c(O)c1 [norepinephrine]
[1]
  invasion of Salmonella Typhimurium in PAM: did neither affect
[2]
  intracellular proliferation of Salmonella Typhimurium in PAM: did neither affect
[3]
  invasion of Salmonella Typhimurium in IPEC-J2 cells: did neither affect
[4]; 1 μM
  intracellular proliferation of Salmonella Typhimurium in IPEC-J2 cells: did neither affect
